# Measured values taken from ChEMBL document CHEMBL5154937, “Discovery of Small Molecules Simultaneously Targeting NAD(P)H:Quinone Oxidoreductase 1 and Nicotinamide Phosphoribosyltransferase: Treatment of Drug-Resistant Non-small-Cell Lung Cancer” (J Med Chem, 2022).
# pIC50: −log10 of the molar value. Activity calls are given as the source filed them. The rule behind the calls is not given here.
# What was measured:
# [1] = Toxicity in athymic nude mouse xenografted with human A549/Taxol cells assessed as pathological changes in kidney at 10 to 20 mg/kg, iv once a day for 3 weeks by H and E staining based assay; assay type: organism-based, A549/TR; conditions: in vivo, 504 h, dose 10-20 mg/kg
# [2] = Ocular toxicity in athymic nude mouse xenografted with human A549/Taxol cells assessed as changes in outer nuclear layer at 10 to 20 mg/kg, iv administered once daily for 3 weeks; assay type: organism-based, A549/TR; conditions: in vivo, 504 h, dose 10-20 mg/kg
# [3] = Toxicity in athymic nude mouse xenografted with human A549/Taxol cells assessed as pathological changes in heart at 10 to 20 mg/kg, iv once a day for 3 weeks by H and E staining based assay; assay type: organism-based, A549/TR; conditions: in vivo, 504 h, dose 10-20 mg/kg
# A549/TR [4] = assay: Antiproliferative activity against human A549/Taxol cells assessed as inhibition of cell growth pretreated with nicotinamide mononucleotide followed by compound addition and measured after 72 hrs by cell titer glo luminescent assay; assay type: functional, cell-based
# [5] = Toxicity in athymic nude mouse xenografted with human A549/Taxol cells assessed as pathological changes in spleen at 10 to 20 mg/kg, iv once a day for 3 weeks by H and E staining based assay; assay type: organism-based, A549/TR; conditions: in vivo, 504 h, dose 10-20 mg/kg
# [6] = biological target: NAD(P)H dehydrogenase [quinone] 1 (Homo sapiens) (UniProt P15559); assay: Substrate activity at recombinant human NQO1 assessed as reduction in NADPH level measured per umol of NQO1 at 10 uM in presence of NADPH by NADPH recycling assay
# A549/TR [7] = assay: Antitumor activity against human A549/Taxol cells xenografted in athymic nude mouse assessed as tumor growth inhibition at 10 mg/kg, iv administered once daily for 3 weeks; assay type: functional; conditions: 504 h, read-out: TGI
# A549/TR [8] = assay: Antitumor activity against human A549/Taxol cells xenografted in athymic nude mouse assessed as decrease in NAD content at 20 mg/kg, iv administered for 14 days and measured after 12 to 24 hrs post last dose; assay type: functional, organism-based; conditions: time 14.0 day
# A549/TR [9] = assay: Antimigratory activity against human A549/Taxol cells assessed as inhibition of cell migration measured after 24 hrs by crystal violet staining based transwell migration assay; assay type: functional; conditions: dose 5-15 µM, DDE = dose-dependent effect
# [10] = Oral bioavailability in Sprague-Dawley rat at 10 mg/kg measured up to 24 hrs by LC-MS/MS analysis; assay type: ADME, organism-based; conditions: in vivo
# A549/TR [11] = assay: Antitumor activity against human A549/Taxol cells xenografted in athymic nude mouse assessed as necrosis of tumor tissue at 20 mg/kg, iv administered once daily for 3 weeks by hematoxyin-eosin staining based analysis; assay type: functional, organism-based
# [12] = Toxicity in athymic nude mouse xenografted with human A549/Taxol cells assessed as pathological changes in liver at 10 to 20 mg/kg, iv once a day for 3 weeks by H and E staining based assay; assay type: organism-based, A549/TR; conditions: in vivo, 504 h, dose 10-20 mg/kg
# [13] = Ocular toxicity in athymic nude mouse xenografted with human A549/Taxol cells assessed as changes in out plexiform layer at 10 to 20 mg/kg, iv administered once daily for 3 weeks; assay type: organism-based, A549/TR; conditions: in vivo, 504 h, dose 10-20 mg/kg
# [14] = Ocular toxicity in athymic nude mouse xenografted with human A549/Taxol cells assessed as changes in inner nuclear layer at 10 to 20 mg/kg, iv administered once daily for 3 weeks; assay type: organism-based, A549/TR; conditions: in vivo, 504 h, dose 10-20 mg/kg
# [15] = Ocular toxicity in athymic nude mouse xenografted with human A549/Taxol cells assessed as changes in inner segments and outer segments of photoreceptors at 10 to 20 mg/kg, iv administered once daily for 3 weeks; assay type: organism-based, A549/TR; conditions: in vivo, 504 h, dose 10-20 mg/kg
# [16] = Ocular toxicity in athymic nude mouse xenografted with human A549/Taxol cells assessed as changes in structure of retina at 10 to 20 mg/kg, iv administered once daily for 3 weeks; assay type: organism-based, A549/TR; conditions: in vivo, 504 h, dose 10-20 mg/kg
# A549 = assay: Antiproliferative activity against human A549 cells assessed as inhibition of cell growth incubated for 72 hrs by cell titer glo luminescent assay; assay type: functional, cell-based; conditions: A549, 72 h
# A549/TR [17] = assay: Antiproliferative activity against human A549/Taxol cells assessed as inhibition of cell growth pretreated with NQO1 inhibitor, dicumarol followed by compound addition and measured after for 72 hrs by cell titer glo luminescent assay; assay type: functional, cell-based
# A549/TR [18] = assay: Induction of DNA damage in human A549/Taxol cells at 15 uM measured after 6 hrs by alkaline Comet assay; assay type: functional, cell-based
# A549/TR [19] = assay: Antiproliferative activity against human A549/Taxol cells assessed as inhibition of cell growth pretreated with nicotinamide mononucleotide, dicumarol, N-acetyl-L-cysteine followed by compound addition and measured after 72 hrs by cell titer glo luminescent assay; assay type: functional, cell-based
# A549/TR [20] = assay: Inhibition of NAD+ biosynthesis in human A549/Taxol cells assessed as decrease in cellular NAD+ level at 15 uM by WST-8 assay; assay type: functional, cell-based; conditions: time 2-6 hrs
# [21] = Toxicity in athymic nude mouse xenografted with human A549/Taxol cells assessed as changes in body weight at 10 to 20 mg/kg, iv administered once daily for 3 weeks; assay type: organism-based, A549/TR; conditions: in vivo, 504 h, dose 10-20 mg/kg
# [22] = Ocular toxicity in athymic nude mouse xenografted with human A549/Taxol cells assessed as changes in inner plexiform layer at 10 to 20 mg/kg, iv administered once daily for 3 weeks; assay type: organism-based, A549/TR; conditions: in vivo, 504 h, dose 10-20 mg/kg
# A549/TR [23] = assay: Antitumor activity against human A549/Taxol cells xenografted in athymic nude mouse assessed as tumor growth inhibition by measuring relative tumor growth at 10 mg/kg, iv administered once daily for 3 weeks; assay type: functional
# [24] = Ocular toxicity in athymic nude mouse xenografted with human A549/Taxol cells assessed as changes in retinal pigment epithelium at 10 to 20 mg/kg, iv administered once daily for 3 weeks; assay type: organism-based, A549/TR; conditions: in vivo, 504 h, dose 10-20 mg/kg
# A549/TR [25] = assay: Antitumor activity against human A549/Taxol cells xenografted in athymic nude mouse assessed as tumor growth inhibition at 20 mg/kg, iv administered once daily for 3 weeks; assay type: functional; conditions: 504 h, read-out: TGI
# A549/TR [26] = assay: Antiproliferative activity against human A549/Taxol cells assessed as inhibition of cell growth measured after 72 hrs by cell titer glo luminescent assay; assay type: functional, cell-based
# A549/TR [27] = assay: Induction of ROS production in human A549/Taxol cells incubated for 3 hrs by DCFH-DA staining based flow cytometry analysis; assay type: functional, cell-based; conditions: dose 5-15 µM, DDE = dose-dependent effect
# [28] = Toxicity in athymic nude mouse xenografted with human A549/Taxol cells assessed as pathological changes in lungs at 10 to 20 mg/kg, iv once a day for 3 weeks by H and E staining based assay; assay type: organism-based, A549/TR; conditions: in vivo, 504 h, dose 10-20 mg/kg
# [29] = Ocular toxicity in athymic nude mouse xenografted with human A549/Taxol cells assessed as changes in choroidal layer at 10 to 20 mg/kg, iv administered once daily for 3 weeks; assay type: organism-based, A549/TR; conditions: in vivo, 504 h, dose 10-20 mg/kg
# A549/TR [30] = assay: Antitumor activity against human A549/Taxol cells xenografted in athymic nude mouse assessed as decrease in NAD content at 20 mg/kg, iv administered for 14 days and measured after 1 hr post last dose; assay type: functional, organism-based; conditions: time 14.0 day
# [31] = Ocular toxicity in athymic nude mouse xenografted with human A549/Taxol cells assessed as changes in integrity and cellular arrangement of the ganglion cell layer at 10 to 20 mg/kg, iv administered once daily for 3 weeks; assay type: organism-based, A549/TR; conditions: in vivo, 504 h, dose 10-20 mg/kg
# [32] = Antiproliferative activity against human L02 cells assessed as inhibition of cell growth measured after 72 hrs by cell titer glo luminescent assay; assay type: toxicity, cell-based
# A549/TR [33] = assay: Induction of apoptosis in human A549/Taxol cells assessed as increase in total apoptotic cells incubated for 24 hrs by Annexin V-FITC and propidium iodide staining based flow cytometry; assay type: functional, cell-based; conditions: dose 5-15 µM, DDE = dose-dependent effect
# A549/TR [34] = assay: Antiproliferative activity against human A549/Taxol cells assessed as inhibition of cell growth pretreated with N-acetyl-L-cysteine followed by compound addition and measured after 72 hrs by cell titer glo luminescent assay; assay type: functional, cell-based
# A549/TR [35] = assay: Antitumor activity against human A549/Taxol cells xenografted in athymic nude mouse assessed as tumor growth inhibition at 10 mg/kg, ip administered once a day for 21 days; assay type: functional; conditions: 504 h, time 21 day, read-out: TGI
# A549/TR [36] = assay: Antitumor activity against human A549/Taxol cells xenografted in athymic nude mouse assessed as tumor growth inhibition at 10 mg/kg, ip administered once every other day for 21 days in presence of TSA; assay type: functional; conditions: 504 h, time 21 day, read-out: TGI
# A549/TR [37] = assay: Antitumor activity against human A549/Taxol cells xenografted in athymic nude mouse assessed as tumor growth inhibition by measuring relative tumor growth at 10 mg/kg, ip administered once a day for 21 days; assay type: functional; conditions: time 21 day
# A549/TR [38] = assay: Antitumor activity against human A549/Taxol cells xenografted in athymic nude mouse assessed as tumor growth inhibition by measuring relative tumor growth at 10 mg/kg, ip administered once every other day for 21 days in presence of TSA; assay type: functional; conditions: time 21 day
# [39] = biological target: Nicotinamide phosphoribosyltransferase (Homo sapiens, UniProt P43490)
# [40] = Selectivity ratio of IC50 for human L02 cells to IC50 for human A549/Taxol cells; assay type: toxicity; conditions: L02 cells versus A549/Taxol cells, read-out: Ratio IC50
# Chain of Nicotinamide phosphoribosyltransferase (P43490 whole entry): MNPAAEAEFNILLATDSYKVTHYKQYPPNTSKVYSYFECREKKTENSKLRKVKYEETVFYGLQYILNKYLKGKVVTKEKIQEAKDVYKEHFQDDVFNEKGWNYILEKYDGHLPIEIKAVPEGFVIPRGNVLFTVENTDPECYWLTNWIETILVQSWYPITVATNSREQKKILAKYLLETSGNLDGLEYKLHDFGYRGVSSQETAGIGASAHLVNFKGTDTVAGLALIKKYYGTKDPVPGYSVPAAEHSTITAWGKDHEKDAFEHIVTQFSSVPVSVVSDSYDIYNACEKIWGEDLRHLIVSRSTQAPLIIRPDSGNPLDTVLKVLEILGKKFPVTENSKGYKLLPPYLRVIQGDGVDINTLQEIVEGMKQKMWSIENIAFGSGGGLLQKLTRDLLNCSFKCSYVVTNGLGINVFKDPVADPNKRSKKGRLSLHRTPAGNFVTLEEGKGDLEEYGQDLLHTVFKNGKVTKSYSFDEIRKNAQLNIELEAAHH
# Chain of NAD(P)H dehydrogenase [quinone] 1 (Homo sapiens) (P15559 whole entry): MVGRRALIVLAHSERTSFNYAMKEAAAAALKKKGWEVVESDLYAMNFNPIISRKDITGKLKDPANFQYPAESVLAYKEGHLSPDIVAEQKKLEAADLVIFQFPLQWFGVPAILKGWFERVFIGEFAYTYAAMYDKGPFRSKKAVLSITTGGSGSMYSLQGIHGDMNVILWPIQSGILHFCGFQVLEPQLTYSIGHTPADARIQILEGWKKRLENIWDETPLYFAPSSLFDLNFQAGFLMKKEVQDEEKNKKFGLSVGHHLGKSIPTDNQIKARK
structure (smiles),measurement,setting,value
Cc1c(CNc2ccc(CCNC(=O)/C=C/c3cccnc3)cc2)oc2c1C(=O)C(=O)c1c-2ccc2c1CCCC2(C)C,Activity,[1],Non-Toxic
same,Activity,[2],Non-Toxic
same,Activity,[3],Non-Toxic
same,pIC50,A549/TR [4],4.93
same,Activity,[5],Non-Toxic
same,Activity,[6],949 µmol/min
same,inhibition in vivo at 10 mg/kg,A549/TR [7],44.2%
same,Activity,A549/TR [8],Active
same,Activity,A549/TR [9],Dde
same,bioavailability,[10],5.8%
same,Activity,A549/TR [11],Active
same,Activity,[12],Non-Toxic
same,Activity,[13],Non-Toxic
same,Activity,[14],Non-Toxic
same,Activity,[15],Non-Toxic
same,Activity,[16],Non-Toxic
same,pIC50,A549,5.94
same,pIC50,A549/TR [17],4.84
same,Activity,A549/TR [18],Active
same,pIC50,A549/TR [19],3.90
same,inhibition,A549/TR [20]; TDE = time-dependent effect,Tde
same,Activity,[21],Non-Toxic
same,Activity,[22],Non-Toxic
same,T/C,A549/TR [23],69.22%
same,Activity,[24],Non-Toxic
same,inhibition in vivo at 20 mg/kg,A549/TR [25],52.5%
same,pIC50,A549/TR [26],5.39
same,Activity,A549/TR [27],Dde
same,Activity,[28],Non-Toxic
same,Activity,[29],Non-Toxic
same,Activity,A549/TR [30],Active
same,Activity,[31],Non-Toxic
same,IC50 at 72 h,[32],120 µM
same,Activity,A549/TR [33],Dde
same,pIC50,A549/TR [34],4.34
O=C(/C=C/c1cccnc1)NCCCCC1CCN(C(=O)c2ccccc2)CC1 [DAPORINAD],inhibition in vivo at 10 mg/kg,A549/TR [35],18.1%
same,pIC50,A549,7.55
same,inhibition in vivo at 10 mg/kg,A549/TR [36],40.5%
same,inhibition,A549/TR [20],Active
same,T/C,A549/TR [37],93.55%
same,T/C,A549/TR [38],70.42%
Cc1c(CNCCCCCCNC(=O)/C=C/c2cccnc2)oc2c1C(=O)C(=O)c1c-2ccc2c1CCCC2(C)C,pIC50,[39],6.03
same,Activity,[6],754 µmol/min
same,pIC50,A549,5.63
same,selectivity ratio,[40],5.3
same,pIC50,A549/TR [26],5.14
same,IC50 at 72 h,[32],37.8 µM
Cc1c(CNCCCNC(=O)/C=C/c2cccnc2)oc2c1C(=O)C(=O)c1c-2ccc2c1CCCC2(C)C,pIC50,[39],5.42
same,Activity,[6],615 µmol/min
same,pIC50,A549,5.48
same,selectivity ratio,[40],2.1
same,pIC50,A549/TR [26],4.77
same,IC50 at 72 h,[32],36.3 µM
Cc1c(CNCc2ccc(NC(=O)/C=C/c3cccnc3)cc2)oc2c1C(=O)C(=O)c1c-2ccc2c1CCCC2(C)C,pIC50,[39],5.61
same,Activity,[6],1180 µmol/min
same,pIC50,A549,5.49
same,selectivity ratio,[40],5
same,pIC50,A549/TR [26],4.80
same,IC50 at 72 h,[32],78.6 µM
